Test results: US6281342A, “Pradimicin compounds” (Bristol-Myers Squibb Company, priority 1994, dated 2001)
Values after ≈ are worked out from the molar mass of the structure shown. Like-named read-outs stand apart in the source and are kept apart here.

Key:
[1] = test system: Saccharomyces cerevisiae ATCC 9763; test: MIC, two-fold agar dilution, S. cerevisiae ATCC 9763; type: cell-based; conditions: ATCC9763, YMA pH 7.0, 28° C., 40 hours
Summary of the method: (§1)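 Yeast morphology agar with 1/15 M phosphate buffer (pH 7.0) held the test compound in two-fold dilutions, and cell suspensions at 2×10^6 cells/ml were spotted onto the surface. After 40-hour incubation at 28° C., the MIC was taken as the lowest concentration giving no growth or under five discrete colonies per spot.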

[2] = test system: Candida albicans IAM 4888; test: MIC, two-fold agar dilution, C. albicans IAM 4888; type: cell-based; conditions: IAM4888, YMA pH 7.0, 28° C., 40 hours
Summary of the method: as §1

Candida albicans A9540 [3] = test: MIC, two-fold agar dilution, C. albicans A9540; type: cell-based
Summary of the method: as §1

[4] = test system: Candida albicans ATCC 38247; test: MIC, two-fold agar dilution, C. albicans ATCC 38247; type: cell-based; conditions: ATCC38247, YMA pH 7.0, 28° C., 60 hours (table footnote)
Summary of the method: (§2)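 Two-fold agar dilution used yeast morphology agar with 1/15 M phosphate buffer at pH 7.0. Spots of 5 μl held 2×10^6 cells/ml (2×10^7 for T. mentagrophytes) and were incubated at 28 °C for 60 h for both strains. MIC was the lowest concentration giving no growth or fewer than five colonies per spot.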

[5] = test system: Candida albicans ATCC 32354; test: MIC, two-fold agar dilution, C. albicans ATCC 32354; type: cell-based; conditions: ATCC32354, YMA pH 7.0, 28° C., 40 hours
Summary of the method: as §1

Candida albicans 83-2-14 = test: MIC, two-fold agar dilution, C. albicans 83-2-14; type: cell-based; conditions: 83214, YMA pH 7.0, 28° C., 40 hours
Summary of the method: as §1

Candida tropicalis 85-8 = test: MIC, two-fold agar dilution, C. tropicalis 85-8; type: cell-based; conditions: 858, YMA pH 7.0, 28° C., 40 hours
Summary of the method: as §1

[6] = test system: Candida tropicalis IFO 10241; test: MIC, two-fold agar dilution, C. tropicalis IFO 10241; type: cell-based; conditions: IFO10241, YMA pH 7.0, 28° C., 40 hours
Summary of the method: as §1

[7] = test system: Cryptococcus neoformans D49; test: MIC, two-fold agar dilution, C. neoformans D49; type: cell-based; conditions: YMA pH 7.0, 28° C., 40 hours
Summary of the method: as §1

[8] = test system: Cryptococcus neoformans IAM 4514; test: MIC, two-fold agar dilution, C. neoformans IAM 4514; type: cell-based; conditions: IAM4514
Summary of the method: as §1

[9] = test system: Aspergillus fumigatus IAM 2034; test: MIC, two-fold agar dilution, A. fumigatus IAM 2034; type: cell-based; conditions: IAM2034
Summary of the method: as §1

[10] = test system: Trichophyton mentagrophytes #4329; test: MIC, two-fold agar dilution, T. mentagrophytes #4329; type: cell-based
Summary of the method: as §2

Candida albicans A9540 [11] = test: animal or person; type: in vivo, male ICR mice infected with Candida albicans A9540; conditions: Candida albicans; for ED50: Table 2, 95% confidence limits in parentheses, read-out: PD50 (50% protection dose)
Summary of the method: (§3)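 Male ICR mice (20-25 g, five per dose) were infected IV with about 10× LD50 of C. albicans A9540 (1×10^6 cells) or A. fumigatus IAM 2034 (1×10^7 cells). Compounds in 10% DMSO were given IV immediately after infection.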

[12] = test system: Aspergillus fumigatus IAM 2034; test: Therapeutic efficacy in Aspergillus fumigatus systemic infection in mice; type: in vivo, male ICR mice infected with Aspergillus fumigatus IAM 2034; conditions: IAM2034, 480 h; for responders at 6.3 mg/kg: 6.3 mg/kg iv; for responders at 6.3 mg/kg / responders at 12.5 mg/kg / responders at 25 mg/kg / responders at 50 mg/kg: 20th day post-infection, read-out: S/T (No. of survivors/tested) (converted); for responders at 12.5 mg/kg: 12.5 mg/kg iv; for responders at 25 mg/kg: 25 mg/kg iv; for responders at 50 mg/kg: 50 mg/kg iv
Summary of the method: as §3

[13] = Water solubility at neutral pH in PBS containing Ca^2+/Mg^2+; type: physicochemical; conditions: pbs with ca2+/mg2+; Table 3; water-solubility at neutral pH in phosphate buffered saline containing Ca^2+/Mg^2+
Description: The compounds of the invention have good water solubility. Typically, the water solubility is greater than 10 mg/ml when measured at neutral pH in PBS containing Ca^2+ /Mg^2+, preferably greater than 20 mg/ml.
^2) Water-solubility at neutral pH in phosphate buffered saline
containing Ca^2+ /Mg^2+.

[14] = Candida albicans A9540, YMA pH 7.0, 28° C., 40 hours, read-out: MIC
[15] = Table 3, Candida albicans A9540, YMA, read-out: MIC Ca-4
[16] = Cryptococcus neoformans IAM 4514, YMA pH 7.0, 28° C., 40 hours, read-out: MIC
[17] = Table 3, Cryptococcus neoformans IAM 4514, YMA, read-out: MIC Cn-2
[18] = Aspergillus fumigatus IAM 2034, YMA pH 7.0, 28° C., 40 hours, read-out: MIC
[19] = Table 3, Aspergillus fumigatus IAM 2034, YMA, read-out: MIC Af-3
[20] = Table 3, Trichophyton mentagrophytes #4329, YMA, read-out: MIC TM-4
[21] = Trichophyton mentagrophytes #4329, YMA pH 7.0, 28° C., 60 hours, read-out: MIC
[22] = A9540, 480 h, C. albicans, mice, 6.3 mg/kg iv, 20th day post-infection, read-out: S/T (No. of survivors/tested) (converted)
[23] = A9540, 480 h, C. albicans, mice, 12.5 mg/kg iv, 20th day post-infection, read-out: S/T (No. of survivors/tested) (converted)
[24] = A9540, 480 h, C. albicans, mice, 25 mg/kg iv, 20th day post-infection, read-out: S/T (No. of survivors/tested) (converted)
[25] = A9540, 480 h, C. albicans, mice, 50 mg/kg iv, 20th day post-infection, read-out: S/T (No. of survivors/tested) (converted)
[26] = A9540, 480 h, C. albicans, mice, iv
[27] = Aspergillus fumigatus, A. fumigatus, mice
[28] = Aspergillus fumigatus, Table 2, A. fumigatus, mice, iv, 95% confidence limits in parentheses, read-out: PD50 (50% protection dose)
[29] = A9540, in Mus musculus, iv, 480 h, read-out: S/T (No. of survivors/tested)

| Structure (SMILES) | MIC [1] [µg/mL] | MIC [2] [µg/mL] | MIC (Candida albicans A9540 [3]; [14]) [µg/mL] | MIC (Candida albicans A9540 [3]; [15]) [µg/mL] | MIC [4] [µg/mL] | MIC [5] [µg/mL] | MIC (Candida albicans 83-2-14) [µg/mL] | MIC (Candida tropicalis 85-8) [µg/mL] | MIC [6] [µg/mL] | MIC [7] [µg/mL] | MIC [8, 16] [µg/mL] | MIC [8, 17] [µg/mL] | MIC [9, 18] [µg/mL] | MIC [9, 19] [µg/mL] | MIC [10, 20] [µg/mL] | MIC [10, 21] [µg/mL] | ED50 (Candida albicans A9540 [11]; [26]) [mg/kg] | responders at 6.3 mg/kg [12, 27] [%] | responders at 12.5 mg/kg [12, 27] [%] | responders at 25 mg/kg [12, 27] [%] | other results |
| --- | --- | --- | --- | --- | --- | --- | --- | --- | --- | --- | --- | --- | --- | --- | --- | --- | --- | --- | --- | --- | --- |
| CN[C@@H]1[C@H](O[C@@H]2OC[C@@H](O)[C@H](O)[C@H]2O)[C@@H](O)[C@H](O[C@H]2c3cc(C)c(C(=O)N[C@H](C)C(=O)O)c(O)c3-c3c(cc4c(c3O)C(=O)c3cc(OC)cc(O)c3C4=O)[C@@H]2O)O[C@@H]1C [Pradimicin A, reference compound] | 6.3 (≈ 7.49 µM) | 6.3 (≈ 7.49 µM) | 12.5 (≈ 14.9 µM) | 12.5 (≈ 14.9 µM) | 3.1 (≈ 3.69 µM) | 3.1 (≈ 3.69 µM) | > 100 | > 100 | > 100 | 1.6 (≈ 1.9 µM) | 1.6 (≈ 1.9 µM) | 1.6 (≈ 1.9 µM) | 1.6 (≈ 1.9 µM) | 0.8 (≈ 0.951 µM) | 3.1 (≈ 3.69 µM) | 3.1 (≈ 3.69 µM) | 10 | 0 | 20 | 60 | responders at 6.3 mg/kg (Candida albicans A9540 [11]; [22]): 0%; responders at 12.5 mg/kg (Candida albicans A9540 [11]; [23]): 80%; responders at 25 mg/kg (Candida albicans A9540 [11]; [24]): 100%; responders at 50 mg/kg (Candida albicans A9540 [11]; [25]): 100%; responders at 50 mg/kg [12, 27]: 100%; ED50 [12, 28]: 23 mg/kg; solubility [13]: 0.02 mg/mL (≈ 23.8 µM) |
| COc1cc(O)c2c(c1)C(=O)c1c(cc3c(c1O)-c1c(cc(C)c(C(=O)N[C@H](C)C(=O)O)c1O)[C@H](O[C@@H]1O[C@H](C)[C@H](NC#N)[C@H](O[C@@H]4OC[C@@H](O)[C@H](O)[C@H]4O)[C@H]1O)[C@H]3O)C2=O [KHM-2, 4'-N-Cyanopradimicin C] | 3.1 (≈ 3.64 µM) | 3.1 (≈ 3.64 µM) | 3.1 (≈ 3.64 µM) | 3.1 (≈ 3.64 µM) | 1.6 (≈ 1.88 µM) | 3.1 (≈ 3.64 µM) | 6.3 (≈ 7.4 µM) | 12.5 (≈ 14.7 µM) | 12.5 (≈ 14.7 µM) | 3.1 (≈ 3.64 µM) | 1.6 (≈ 1.88 µM) | 1.6 (≈ 1.88 µM) | 3.1 (≈ 3.64 µM) | 3.1 (≈ 3.64 µM) | 12.5 (≈ 14.7 µM) | 12.5 (≈ 14.7 µM) | 13 | 0 | 20 | 40 | responders at 6.3 mg/kg (Candida albicans A9540 [11]; [22]): 20%; responders at 12.5 mg/kg (Candida albicans A9540 [11]; [23]): 40%; responders at 25 mg/kg (Candida albicans A9540 [11]; [24]): 80%; responders at 50 mg/kg (Candida albicans A9540 [11]; [25]): 100%; responders at 50 mg/kg [12, 27]: 60%; ED50 [12, 28]: 27 mg/kg; solubility [13]: > 20 mg/mL |
| COc1cc(O)c2c(c1)C(=O)c1c(cc3c(c1O)-c1c(cc(C)c(C(=O)N[C@H](C)C(=O)O)c1O)[C@H](O[C@@H]1O[C@H](C)[C@H](N(C)N=O)[C@H](O[C@@H]4OC[C@@H](O)[C@H](O)[C@H]4O)[C@H]1O)[C@H]3O)C2=O [KHM-6, 4'-N-Nitrosopradimicin A] | 3.1 (≈ 3.56 µM) | 6.3 (≈ 7.24 µM) | 6.3 (≈ 7.24 µM) | 6.3 (≈ 7.24 µM) | 1.6 (≈ 1.84 µM) | 3.1 (≈ 3.56 µM) | 6.3 (≈ 7.24 µM) | 12.5 (≈ 14.4 µM) | 12.5 (≈ 14.4 µM) | 1.6 (≈ 1.84 µM) | 1.6 (≈ 1.84 µM) | 1.6 (≈ 1.84 µM) | 3.1 (≈ 3.56 µM) | 3.1 (≈ 3.56 µM) | 3.1 (≈ 3.56 µM) | 3.1 (≈ 3.56 µM) | 27 | 0 | 40 | 0 | responders at 6.3 mg/kg (Candida albicans A9540 [11]; [29]): 0%; responders at 12.5 mg/kg (Candida albicans A9540 [11]; [29]): 20%; responders at 25 mg/kg (Candida albicans A9540 [11]; [29]): 20%; responders at 50 mg/kg (Candida albicans A9540 [11]; [29]): 80%; responders at 50 mg/kg [12, 27]: 40%; ED50 [12, 28]: > 50 mg/kg; ED50 ([12]; Table 3, Aspergillus fumigatus IAM 2034, iv, read-out: PD50 (mice) Af-3): > 50 mg/kg; solubility [13]: > 20 mg/mL |
